What was measured:
[1] = background statement with literature references; cited from earlier work

Row | melting point | SMILES | insulinotropic activity [1]
1 | 193 to 194 °C (dec.) | C[C@@H]([C@H](C)O)[C@@H](NCc1ccccc1)C(=O)O [(2R)-N-Bn-1, (2R,3R,4S)-N-benzyl-4-hydroxyisoleucine] | 
2 |  | C[C@@H]([C@H](C)O)[C@H](N)C(=O)O [compound 1, (2S,3R,4S)-4-hydroxyisoleucine] | possesses an insulinotropic activity

Source: US7432087B2, “Method for preparing (2S, 3R, 4S)-4-hydroxyisoleucine and analogues thereof” (Centre National de la Recherche Scientifque, priority 2002, dated 2008)
